Experimental data as given in US10918727B2, “Peptide with ability to penetrate cell membrane” (ICURE BNP CO., LTD., priority 2016, dated 2021).

System: male ICR mice
Assay: Repeated-dose toxicity of nasal insulin formulations (10 days)
Assay type: in vivo, mouse
Conditions: intranasal once a day for 10 days (insulin 2 IU/kg)
Protocol: The collected blood was centrifuged to isolate serum, and the isolated serum was analyzed using an automatic serum analyzer. […] From the organ tissue, paraffin sections were prepared, and then stained with H&E (Hematoxylin and Eosin). Histopathological examination of the stained tissues was performed using an optical microscope.

## C[C@H](CCC(=O)NCCS(=O)(=O)[O-])[C@H]1CC[C@H]2[C@@H]3CC[C@@H]4C[C@H](O)CC[C@]4(C)[C@H]3C[C@H](O)[C@]12C.[Na+] [sodium taurodeoxycholate]
  histological evaluation of the nasal mucosal tissue: destroyed
